Results from article PMC10323144, “Garbage in, garbage out: how reliable training data improved a virtual screening approach against SARS-CoV-2 MPro” (Frontiers in Pharmacology, 2023).
Where two headings read alike, the source gives them in different places. Square brackets hold non-standard residues; d marks the D form. Peptide text beside a SMILES is read from it. * marks the point of attachment. Bn = c1ccc(C*)cc1; Sar = CNCC(=O)O; tBu = CC(C)(C)*

Columns and labels:
[1] = system: MPro; details: compiled from peer-reviewed sources (287 compounds) ref the 18 original articles; cited from earlier work
[2] = molecular target: SARS-CoV-2 MPro (Severe acute respiratory syndrome coronavirus 2, UniProt P0DTD1); assay: MPro activity assay (de-quenching of Edans fluorescence on cleavage of a Dabcyl/Edans peptide); type: biochemical; details: for activity at 10 µM: read-out: % activity MPro; for Class (MPro activity class): in-house acquired data, internal screening under standardized conditions (128 compounds)
[3] = system: SARS-CoV-2 (βCoV/KOR/KCDC03/2020); assay: microbe, parasite or virus in culture; type: cell-based
[4] = in vitro; details: African green monkey

| SMILES | Class (MPro activity class) [2] | further results |
| --- | --- | --- |
| O=CC(CC1CCNC1=O)NC(=O)C(CC1CCCCC1)NC(=O)c1cc2ccccc2[nH]1 (stereo not shown) [11a] |  | Class (MPro activity class) [1]: 1 (Compounds with IC50 < 10 µM or with a percentage of enzyme inhibition >50% at 10 µM were labelled as ACTIVE); activity at 10 µM [2]: 104 ± 1.1% |
| O=C(/C=C/c1ccc2ccccc2c1)c1c(O)ccc2ccccc12 [27d] |  | IC50 ([2]; 60 min pre-incubation, 5 μM substrate): 5.8 µM; antiviral activity (in words) [3]: lacked antiviral activity |
| CCN(CC)CCCC(C)Nc1ccnc2cc(Cl)ccc12 (stereo not shown) [Chloroquine] |  | Class (MPro activity class) [1]: 0 (compounds with IC50 > 20 μM, percentage inhibition <80% at 20 µM or 50 μM, or percentage enzyme inhibition <50% at 10 µM were labelled as INACTIVE); IC50 [3]: 17.8 µM; IC50 ([3]; Severe acute respiratory syndrome coronavirus 2, Vero, 24 h): 18 µM; CC50 [4]: > 150 µM |
| Cc1[nH]c(C(=O)Nc2ccc(C(=O)O)cc2)c(Cl)c1Cl [UL-NNS 38-1] | 0 (compounds with IC50 > 20 μM, percentage inhibition <80% at 20 µM or 50 μM, or percentage enzyme inhibition <50% at 10 µM were labelled as INACTIVE) |  |
| Nc1ncc2cc(-c3c(F)cccc3F)c(N)nc2n1 [ZEA107] | 0 (compounds with IC50 > 20 μM, percentage inhibition <80% at 20 µM or 50 μM, or percentage enzyme inhibition <50% at 10 µM were labelled as INACTIVE) |  |
| Nc1ncc2cc(-c3ccc4c(c3)OCO4)c(N)nc2n1 [ZVR108] | 0 (compounds with IC50 > 20 μM, percentage inhibition <80% at 20 µM or 50 μM, or percentage enzyme inhibition <50% at 10 µM were labelled as INACTIVE) |  |
| Nc1nc2nc(NCCCN3CCOCC3)ncc2cc1-c1c(Cl)cccc1Cl [ZVR130] | 0 (compounds with IC50 > 20 μM, percentage inhibition <80% at 20 µM or 50 μM, or percentage enzyme inhibition <50% at 10 µM were labelled as INACTIVE) |  |
| COc1cc(OC)cc(-c2cc3cnc(N)nc3nc2N)c1 [ZVR-100] | 0 (compounds with IC50 > 20 μM, percentage inhibition <80% at 20 µM or 50 μM, or percentage enzyme inhibition <50% at 10 µM were labelled as INACTIVE) |  |
| Nc1ncc(C(=O)N(Cc2ccccc2)Cc2ccccc2)o1 [ZVR-102] | 0 (compounds with IC50 > 20 μM, percentage inhibition <80% at 20 µM or 50 μM, or percentage enzyme inhibition <50% at 10 µM were labelled as INACTIVE) |  |
| CCCCN(CCCC)C(=O)c1cnc(N)o1 [ZVR-103] | 0 (compounds with IC50 > 20 μM, percentage inhibition <80% at 20 µM or 50 μM, or percentage enzyme inhibition <50% at 10 µM were labelled as INACTIVE) |  |
| CCn1nc(C)cc1C(=O)N(Cc1ccccc1)Cc1ccccc1 [ZVR-117] | 0 (compounds with IC50 > 20 μM, percentage inhibition <80% at 20 µM or 50 μM, or percentage enzyme inhibition <50% at 10 µM were labelled as INACTIVE) |  |
| Cc1nc(N)sc1C(=O)N(Cc1ccccc1)Cc1ccccc1 [ZVR-119] | 0 (compounds with IC50 > 20 μM, percentage inhibition <80% at 20 µM or 50 μM, or percentage enzyme inhibition <50% at 10 µM were labelled as INACTIVE) |  |
| CC(C)(C)OC(=O)Nc1cccn(C(CC2CCCCC2)C(=O)NC(CC2CCNC2=O)C(=O)C(=O)NC2CC2)c1=O (stereo not shown) [compound 13a] |  | Class (MPro activity class) [1]: 1 (Compounds with IC50 < 10 µM or with a percentage of enzyme inhibition >50% at 10 µM were labelled as ACTIVE); activity at 10 µM [2]: 98.6 ± 0.9% |
| CCOC(=O)CN(C(=O)C1(C)CCc2c(C)c(O)c(C)c(C)c2O1)C(C(=O)NCCc1ccccc1)c1ccccc1 (stereo not shown) [vCOV194134] | 0 (compounds with IC50 > 20 μM, percentage inhibition <80% at 20 µM or 50 μM, or percentage enzyme inhibition <50% at 10 µM were labelled as INACTIVE) |  |
| CC(OC(C)(C)C)C1NC(=O)CN(C)C(=O)C(Cc2ccccc2)NC(=O)CN(C)C1=O (stereo not shown) [vCOV194214] (cyclo([Sar]F[Sar]T(tBu)); configuration not given here) | 0 (compounds with IC50 > 20 μM, percentage inhibition <80% at 20 µM or 50 μM, or percentage enzyme inhibition <50% at 10 µM were labelled as INACTIVE) |  |
| CN1CC(=O)NC(Cc2ccccc2)C(=O)N(C)CC(=O)NC(CSCc2ccccc2)C1=O (stereo not shown) [vCOV194219] (cyclo([Sar]C(Bn)[Sar]F); configuration not given here) | 0 (compounds with IC50 > 20 μM, percentage inhibition <80% at 20 µM or 50 μM, or percentage enzyme inhibition <50% at 10 µM were labelled as INACTIVE) |  |
